From ChEMBL document CHEMBL1151322, “Phycomysterols and other sterols from the fungus Phycomyces blakesleeanus” (J Nat Prod, 1998)
Values after ≈ are worked out from the molar mass of the structure shown.

How the values were obtained:
[1] = system: Human immunodeficiency virus; assay: Antiviral activity against HIV at 0.64 ug/well; assay type: functional
P388 = assay: Antitumor activity against mouse P388 cells; assay type: functional, cell-based
[2] = Antitumor activity against mouse SCHABEL cells; assay type: functional, cell-based
A549 = assay: Antitumor activity against human A549 cells; assay type: functional, cell-based
HT-29 = assay: Antitumor activity against human HT-29 cells; assay type: functional, cell-based
SK-MEL-28 = assay: Antitumor activity against human SK-MEL-28 cells; assay type: functional, cell-based

IC50 (P388): 5 µg/mL (≈ 13.1 µM)
IC50 [2]: 5 µg/mL (≈ 13.1 µM)
IC50 (A549): 10 µg/mL (≈ 26.3 µM)
IC50 (HT-29): 10 µg/mL (≈ 26.3 µM)
IC50 (SK-MEL-28): 10 µg/mL (≈ 26.3 µM)
SMILES: C=C(CC[C@@H](C)[C@H]1CC[C@H]2c3ccc4c(c3CC[C@]12C)CC[C@H](O)C4)C(C)C [PHYCOMYSTEROL A]
Activity [1]: 64%
